In PubChem BioAssay (NCI) one finds GI50 and TGI data, which are given here for nine molecules.

Each structure is given as a SMILES string.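 Assay format: 96-well plates, 48-hour exposure. GI50 = concentration required for 50% inhibition of growth. At the TGI there is no net growth.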

Some test systems named below: A498 renal; CAKI-1 renal; COLO 205 colon; EKVX NSCLC; HCT-15 colon; MALME-3M melanoma; MCF7 breast; SF-268 CNS; SNB-19 CNS; HL-60(TB) leukemia.
What all share (test): NCI-60 cell line screen, 48 h

`O=C(NCCCCN1CCOCC1)c1cc2ccccc2o1`: the GI50 in the test with A498 renal, in the test on CAKI-1 renal, in the test on COLO 205 colon, with EKVX NSCLC, in the test on HCT-15 colon and with MALME-3M melanoma was over 100 µM each time. Further, the GI50 in the test with MCF7 breast, in the test with SF-268 CNS and in the test on SNB-19 CNS was over 100 µM in each case. The TGI in the test on A498 renal, in the test with CAKI-1 renal, in the test with COLO 205 colon, with EKVX NSCLC, in the test on HCT-15 colon and in the test on MALME-3M melanoma was over 100 µM each time. Besides, the TGI with MCF7 breast, with SF-268 CNS and in the test on SNB-19 CNS was over 100 µM each time.

Take `Cc1c(C)n(CCCN2CCN(C)CC2)c2ccc(Oc3cccc(C(=O)N4CCN(CCc5ccc(F)cc5)CC4)c3)cc12`: the GI50 was 1.77 µM in the test with CAKI-1 renal; 1.97 µM in the test with COLO 205 colon; 1.65 µM in the test with EKVX NSCLC; 1.59 µM in the test with HCT-15 colon; 1.78 µM with MALME-3M melanoma; 1.59 µM in the test with MCF7 breast. In addition, the GI50 was 1.79 µM in the test on SF-268 CNS and 1.75 µM in the test on SNB-19 CNS. Moreover, the TGI in the test on CAKI-1 renal came to 3.46 µM; in the test with COLO 205 colon it was 3.8 µM; with EKVX NSCLC it was 3.12 µM; with HCT-15 colon it was 3.09 µM; in the test on MALME-3M melanoma, 3.32 µM; in the test on MCF7 breast it was 3.22 µM. In addition, the figures for the TGI with SF-268 CNS and with SNB-19 CNS were 3.78 µM and 3.31 µM, respectively.

On to `C=CN(C(=O)N1CCN(c2cc3c(cc2F)c(=O)c(C(=O)O)cn3C2CC2)CC1)c1nc(-c2ccc(OC)cc2)cs1`, for which the GI50 is 2.93 µM with A498 renal; 2.84 µM in the test on CAKI-1 renal; 2.54 µM with COLO 205 colon; 4.12 µM with EKVX NSCLC; 2.86 µM with HCT-15 colon; 4.11 µM in the test on MALME-3M melanoma. Further, the GI50 in the test with MCF7 breast is 3.36 µM; in the test with SF-268 CNS, 4.14 µM; with SNB-19 CNS it was 4.7 µM. The TGI with A498 renal was over 100 µM; with CAKI-1 renal, 18.3 µM; in the test on COLO 205 colon it was 6.59 µM; with EKVX NSCLC, over 100 µM; with HCT-15 colon, over 100 µM; in the test with MALME-3M melanoma, over 100 µM. The TGI in the test on MCF7 breast was over 100 µM; in the test with SF-268 CNS, over 100 µM; in the test with SNB-19 CNS it was 46 µM.

For the molecule `COc1ccc(Nc2nc3cc(N)cc(N)c3nc2-c2ccccc2)cc1`, the GI50 with CAKI-1 renal was 35.2 µM; in the test on COLO 205 colon, 15.7 µM; in the test with EKVX NSCLC it was 26 µM; in the test with HCT-15 colon it was 15.3 µM; in the test on HL-60(TB) leukemia, 34.4 µM; with MALME-3M melanoma, 15 µM. Further, the values for the GI50 in the test with MCF7 breast, in the test on SF-268 CNS and in the test on SNB-19 CNS were 14.9 µM, 13 µM and 33.8 µM, respectively. The TGI was over 100 µM in the test on CAKI-1 renal; 29.2 µM in the test on COLO 205 colon; over 100 µM with EKVX NSCLC; 45 µM in the test on HCT-15 colon; over 100 µM in the test on HL-60(TB) leukemia; 28.3 µM in the test on MALME-3M melanoma. For the same molecule, the TGI is 28.1 µM in the test on MCF7 breast, 30.6 µM in the test on SF-268 CNS and over 100 µM with SNB-19 CNS.

For the molecule `O=C(CN(/C=C/C(=O)C(F)(F)F)c1ccc(Cl)cc1)c1ccc(Cl)cc1`, the GI50 was 13.5 µM with A498 renal; 1.98 µM in the test with CAKI-1 renal; 13.4 µM in the test on COLO 205 colon; 14.3 µM with EKVX NSCLC; 6.83 µM in the test with HCT-15 colon; 15.5 µM in the test with MALME-3M melanoma. Also, the GI50 with MCF7 breast was 5.15 µM; in the test on SF-268 CNS, 11.5 µM; with SNB-19 CNS, 11 µM. In addition, the TGI with A498 renal is 26.9 µM; in the test on CAKI-1 renal it was 9.5 µM; in the test on COLO 205 colon it was 31.8 µM; with EKVX NSCLC, 28.7 µM; with HCT-15 colon it was 20.4 µM; in the test on MALME-3M melanoma it was 50.8 µM. The figures for the TGI in the test on MCF7 breast, in the test on SF-268 CNS and with SNB-19 CNS were 29.8 µM, 29.4 µM and 31.2 µM, respectively.

Turning to `Oc1ccc(C=Nc2ccccc2O)cc1`, the TGI was over 100 µM in the test on A498 renal; over 100 µM in the test with CAKI-1 renal; 91.7 µM in the test on COLO 205 colon; over 100 µM in the test on EKVX NSCLC; over 100 µM in the test with HCT-15 colon; 42.1 µM in the test on HL-60(TB) leukemia. For the same molecule, the TGI with MCF7 breast was 90.8 µM; in the test on SF-268 CNS, over 100 µM; in the test with SNB-19 CNS, over 100 µM.

Regarding `COc1cc(/C=C2\CC3C4CC=C5C[C@@H](OC(C)=O)CC[C@]5(C)C4CC[C@]3(C)C2=O)ccc1OCCN1CCCCC1` (stereo partly specified), the GI50 with A498 renal was 1.71 µM; in the test with CAKI-1 renal it was 2.65 µM; in the test on COLO 205 colon, 3.14 µM; in the test on EKVX NSCLC, 13.7 µM; in the test with HCT-15 colon it was 1.29 µM; with MALME-3M melanoma, 1.66 µM. Moreover, the GI50 in the test on MCF7 breast was 2.07 µM; in the test with SF-268 CNS it was 3.39 µM; in the test with SNB-19 CNS, 8.46 µM. Besides, the TGI with A498 renal was 5.07 µM; in the test on CAKI-1 renal, 7.64 µM; in the test with COLO 205 colon, 30.4 µM; with EKVX NSCLC, 27.4 µM; in the test with HCT-15 colon it was 3.25 µM; in the test on MALME-3M melanoma it was 3.35 µM. For the same molecule, the TGI with MCF7 breast was determined as 5.53 µM; in the test with SF-268 CNS, 31.4 µM; with SNB-19 CNS it was 43.3 µM.

Turning to `COc1ccc(C2(Cl)c3ccccc3N(c3ccccc3)c3ccccc32)cc1`, the GI50 is 1.68 µM in the test with CAKI-1 renal; 0.421 µM in the test on COLO 205 colon; 0.25 µM in the test with EKVX NSCLC; 0.909 µM in the test with HCT-15 colon; 0.542 µM with HL-60(TB) leukemia; 0.298 µM in the test with MALME-3M melanoma. Moreover, the GI50 in the test with MCF7 breast was 0.182 µM; in the test with SF-268 CNS, 0.758 µM; in the test with SNB-19 CNS, 0.637 µM. For the same molecule, the TGI with CAKI-1 renal came out at 12.5 µM; in the test with COLO 205 colon, 2.45 µM; with EKVX NSCLC, 2.9 µM; in the test with HCT-15 colon, 10.8 µM; with HL-60(TB) leukemia it was 4.25 µM; in the test with MALME-3M melanoma, 1.66 µM. Further, the TGI was 1.9 µM with MCF7 breast, 2.88 µM in the test with SF-268 CNS and 2.43 µM with SNB-19 CNS.

On to `OCC1C(OCc2ccccc2)C(OCc2ccccc2)C(OCc2ccccc2)CN1Cc1ccccc1` (stereo unspecified), for which the TGI is over 100 µM in the test with CAKI-1 renal; 28.4 µM in the test on COLO 205 colon; over 100 µM in the test on EKVX NSCLC; over 100 µM with HCT-15 colon; 91.5 µM with MALME-3M melanoma; 43.9 µM in the test on MCF7 breast. For the same molecule, the TGI in the test with SF-268 CNS and with SNB-19 CNS was over 100 µM in each case.
